Laboratory results taken from PubChem BioAssay (NCI).
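How tested: cells in 96-well plates exposed to compound for 48 hours at five concentrations. GI50 marks 50% less growth. The concentration for full growth arrest is given as TGI.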

Experiments:
Experiment in all cases: NCI anticancer screen, dose series, 48 h
RXF 393 renal = test system: RXF 393 renal
M14 melanoma = test system: M14 melanoma
MCF7 breast = test system: MCF7 breast
UO-31 renal = test system: UO-31 renal
HT29 colon = test system: HT29 colon
A549 NSCLC = test system: A549 NSCLC
MALME-3M melanoma = test system: MALME-3M melanoma
SNB-19 CNS = test system: SNB-19 CNS
HCC-2998 colon = test system: HCC-2998 colon
SF-295 CNS = test system: SF-295 CNS
HOP-92 NSCLC = test system: HOP-92 NSCLC
SF-268 CNS = test system: SF-268 CNS
IGROV1 ovarian = test system: IGROV1 ovarian
HCT-15 colon = test system: HCT-15 colon
SK-MEL-28 melanoma = test system: SK-MEL-28 melanoma
MDA-MB-435 = test system: MDA-MB-435
MDA-MB-231 breast = test system: MDA-MB-231 breast
COLO 205 colon = test system: COLO 205 colon
CAKI-1 renal = test system: CAKI-1 renal
HOP-62 NSCLC = test system: HOP-62 NSCLC
K-562 leukemia = test system: K-562 leukemia
ACHN renal = test system: ACHN renal
MOLT-4 leukemia = test system: MOLT-4 leukemia
DU-145 prostate = test system: DU-145 prostate
OVCAR-4 ovarian = test system: OVCAR-4 ovarian
HL-60(TB) leukemia = test system: HL-60(TB) leukemia
OVCAR-3 ovarian = test system: OVCAR-3 ovarian
EKVX NSCLC = test system: EKVX NSCLC
CCRF-CEM leukemia = test system: CCRF-CEM leukemia
SK-MEL-2 melanoma = test system: SK-MEL-2 melanoma
UACC-62 melanoma = test system: UACC-62 melanoma
NCI-H23 lung = test system: NCI-H23 lung
OVCAR-8 ovarian = test system: OVCAR-8 ovarian
SW-620 colon = test system: SW-620 colon
SNB-75 CNS = test system: SNB-75 CNS
SK-MEL-5 melanoma = test system: SK-MEL-5 melanoma
RPMI-8226 leukemia = test system: RPMI-8226 leukemia
TK-10 renal = test system: TK-10 renal
KM12 colon = test system: KM12 colon
HS 578T breast = test system: HS 578T breast
PC-3 prostate = test system: PC-3 prostate
NCI-H226 lung = test system: NCI-H226 lung
T-47D breast = test system: T-47D breast
SR leukemia = test system: SR leukemia
NCI/ADR-RES ovarian = test system: NCI/ADR-RES ovarian
U251 CNS = test system: U251 CNS
NCI-H460 lung = test system: NCI-H460 lung
UACC-257 melanoma = test system: UACC-257 melanoma
SF-539 CNS = test system: SF-539 CNS
SK-OV-3 ovarian = test system: SK-OV-3 ovarian
LOX IMVI melanoma = test system: LOX IMVI melanoma
786-0 renal = test system: 786-0 renal
SN12C renal = test system: SN12C renal
OVCAR-5 ovarian = test system: OVCAR-5 ovarian
NCI-H522 lung = test system: NCI-H522 lung
HCT-116 colon = test system: HCT-116 colon

SMILES: C=C1CCC2C(/C=C(\C)CCC1O)OC(=O)C2C (configuration not stated)
- GI50 (RXF 393 renal): 23.2 µM
- TGI (RXF 393 renal): > 100 µM
- GI50 (M14 melanoma): > 100 µM
- TGI (M14 melanoma): > 100 µM
- GI50 (MCF7 breast): 82.2 µM
- TGI (MCF7 breast): > 100 µM
- GI50 (UO-31 renal): > 100 µM
- TGI (UO-31 renal): > 100 µM
- GI50 (HT29 colon): > 100 µM
- TGI (HT29 colon): > 100 µM
- GI50 (A549 NSCLC): > 100 µM
- TGI (A549 NSCLC): > 100 µM
- GI50 (MALME-3M melanoma): > 100 µM
- TGI (MALME-3M melanoma): > 100 µM
- GI50 (SNB-19 CNS): > 100 µM
- TGI (SNB-19 CNS): > 100 µM
- GI50 (HCC-2998 colon): > 100 µM
- TGI (HCC-2998 colon): > 100 µM
- GI50 (SF-295 CNS): > 100 µM
- TGI (SF-295 CNS): > 100 µM
- GI50 (HOP-92 NSCLC): > 100 µM
- TGI (HOP-92 NSCLC): > 100 µM
- GI50 (SF-268 CNS): > 100 µM
- TGI (SF-268 CNS): > 100 µM
- GI50 (IGROV1 ovarian): > 100 µM
- TGI (IGROV1 ovarian): > 100 µM
- GI50 (HCT-15 colon): > 100 µM
- TGI (HCT-15 colon): > 100 µM
- GI50 (SK-MEL-28 melanoma): > 100 µM
- TGI (SK-MEL-28 melanoma): > 100 µM
- GI50 (MDA-MB-435): > 100 µM
- TGI (MDA-MB-435): > 100 µM
- GI50 (MDA-MB-231 breast): > 100 µM
- TGI (MDA-MB-231 breast): > 100 µM
- GI50 (COLO 205 colon): > 100 µM
- TGI (COLO 205 colon): > 100 µM
- GI50 (CAKI-1 renal): > 100 µM
- TGI (CAKI-1 renal): > 100 µM
- GI50 (HOP-62 NSCLC): > 100 µM
- TGI (HOP-62 NSCLC): > 100 µM
- GI50 (K-562 leukemia): > 100 µM
- TGI (K-562 leukemia): > 100 µM
- GI50 (ACHN renal): > 100 µM
- TGI (ACHN renal): > 100 µM
- GI50 (MOLT-4 leukemia): 19.6 µM
- TGI (MOLT-4 leukemia): 58.2 µM
- GI50 (DU-145 prostate): > 100 µM
- TGI (DU-145 prostate): > 100 µM
- GI50 (OVCAR-4 ovarian): > 100 µM
- TGI (OVCAR-4 ovarian): > 100 µM
- GI50 (HL-60(TB) leukemia): 51.5 µM
- TGI (HL-60(TB) leukemia): > 100 µM
- GI50 (OVCAR-3 ovarian): > 100 µM
- TGI (OVCAR-3 ovarian): > 100 µM
- GI50 (EKVX NSCLC): > 100 µM
- TGI (EKVX NSCLC): > 100 µM
- GI50 (CCRF-CEM leukemia): 31.3 µM
- TGI (CCRF-CEM leukemia): > 100 µM
- GI50 (SK-MEL-2 melanoma): > 100 µM
- TGI (SK-MEL-2 melanoma): > 100 µM
- GI50 (UACC-62 melanoma): > 100 µM
- TGI (UACC-62 melanoma): > 100 µM
- GI50 (NCI-H23 lung): > 100 µM
- TGI (NCI-H23 lung): > 100 µM
- GI50 (OVCAR-8 ovarian): > 100 µM
- TGI (OVCAR-8 ovarian): > 100 µM
- GI50 (SW-620 colon): > 100 µM
- TGI (SW-620 colon): > 100 µM
- GI50 (SNB-75 CNS): > 100 µM
- TGI (SNB-75 CNS): > 100 µM
- GI50 (SK-MEL-5 melanoma): > 100 µM
- TGI (SK-MEL-5 melanoma): > 100 µM
- GI50 (RPMI-8226 leukemia): 90.4 µM
- TGI (RPMI-8226 leukemia): > 100 µM
- GI50 (TK-10 renal): > 100 µM
- TGI (TK-10 renal): > 100 µM
- GI50 (KM12 colon): > 100 µM
- TGI (KM12 colon): > 100 µM
- GI50 (HS 578T breast): > 100 µM
- TGI (HS 578T breast): > 100 µM
- GI50 (PC-3 prostate): > 100 µM
- TGI (PC-3 prostate): > 100 µM
- GI50 (NCI-H226 lung): > 100 µM
- TGI (NCI-H226 lung): > 100 µM
- GI50 (T-47D breast): > 100 µM
- TGI (T-47D breast): > 100 µM
- GI50 (SR leukemia): > 100 µM
- TGI (SR leukemia): > 100 µM
- GI50 (NCI/ADR-RES ovarian): > 100 µM
- TGI (NCI/ADR-RES ovarian): > 100 µM
- GI50 (U251 CNS): > 100 µM
- TGI (U251 CNS): > 100 µM
- GI50 (NCI-H460 lung): > 100 µM
- TGI (NCI-H460 lung): > 100 µM
- GI50 (UACC-257 melanoma): > 100 µM
- TGI (UACC-257 melanoma): > 100 µM
- GI50 (SF-539 CNS): > 100 µM
- TGI (SF-539 CNS): > 100 µM
- GI50 (SK-OV-3 ovarian): > 100 µM
- TGI (SK-OV-3 ovarian): > 100 µM
- GI50 (LOX IMVI melanoma): > 100 µM
- TGI (LOX IMVI melanoma): > 100 µM
- GI50 (786-0 renal): > 100 µM
- TGI (786-0 renal): > 100 µM
- GI50 (SN12C renal): > 100 µM
- TGI (SN12C renal): > 100 µM
- GI50 (OVCAR-5 ovarian): > 100 µM
- TGI (OVCAR-5 ovarian): > 100 µM
- GI50 (NCI-H522 lung): > 100 µM
- TGI (NCI-H522 lung): > 100 µM
- GI50 (HCT-116 colon): > 100 µM
- TGI (HCT-116 colon): > 100 µM
